Structures can show the parent of a compound that is named as a salt.
Columns and labels:
[1] = Water-sorption analysis; assay type: physicochemical; conditions: for release of crystal water: at 0 % RH, nitrogen flow 200 ml/min; for release of crystal water / water sorption started at: 25°C; for water sorption started at: cycles from 0 % RH to 95 % RH
Protocol: An amount of 20 mg of zipasidone hydrogensulphate dihydrate was exposed to a water-sorption analysis (Surface Measurement Systems Ltd., London, UK; two complete 11-step circles from 0 % RH to 95 % RH at the temperature 25°C and nitrogen flow rate 200 ml/min; minimal retention time at the step when dm/dt < 0.002% is 10 minutes and maximal 360 minutes) and compared to the same test of Ziprasidone hydrochloride monohydrate.

[2] = Particle size by laser light scattering; assay type: physicochemical; conditions: drug substance used in the compositions of Example 12
Protocol: The average particle size is determined by laser light scattering using a Malvern-Mastersizer Apparatus MS 2000. The particles to be subjected to the particle size measurement are first suspended in isoparafinic oil (Isopar®) and then subjected to a size determination in a Malvern Mastersizer MS 2000 instrument. Usually, 100-800 mg of substance is dispersed in 5-8 ml of […]. According to manufacturer's information, the Malvern Mastersizers allow for a measurement of particle size distributions in the range of 20 nm to 2000 µm, with a precision of better than 0.5%. Particle sizes are determined by measuring the angular distribution of laser light scattered by a homogeneous suspension of particles. The size distribution is determined from the light scattering data using the theory of light scattering developed by Gustav Mie.

[3] = 2 weeks

| Compound | release of crystal water [1] | water sorption started at [1] | stability to hydratation ([1]; compared with Ziprasidone hydrochloride salt) | Particle size [2] | HPLC purity of Ziprasidone after two-week stability test [3] |
| --- | --- | --- | --- | --- | --- |
| O=C1Cc2cc(CCN3CCN(c4nsc5ccccc45)CC3)c(Cl)cc2N1 [Ziprasidone hydrochloride monohydrate, reference compound] | release crystal water | 30 % RH |  |  |  |
| O.O.O=C1Cc2cc(CCN3CCN(c4nsc5ccccc45)CC3)c(Cl)cc2N1.O=S(=O)(O)O [Ziprasidone hydrogensulphate dihydrate, 5-[2-[4-(1,2-benzisothiazol-3-yl)-1-piperazinyl]ethyl]-6-chloro-1,3-dihydro-2H-indol-2-one hydrogensulphate dihydrate] | does not release crystal water | 50 % RH | more stable to hydratation | 26 µm | 99.7% |

From patent EP1892243A1, “Polymorphic forms of ziprasidone sulphate salts” (KRKA, tovarna zdravil, d.d., Novo mesto, priority 2006, dated 2008)
